Data on 1 compound can be found in patent publication US20200101042A1, “4-METHYLUMBELLIFERONE TREATMENT FOR IMMUNE MODULATION” (Benaroya Research Institute at Virginia Mason, priority 2013, published 2020).

The test system of series [1] is MOG35-55 peptide-induced EAE in C57B1/6 mice. Description: MOG35-55 peptide-induced EAE mouse model of MS, EAE incidence and score. Particulars: for incidence of EAE: control 9/10. It is filed as in vivo. The text has this: FIGS. 12A, 12B, and 12C graphically illustrate the mean EAE score as a function of days post induction in subjects treated with 4-MU according to a pretreatment, treatment, or intervention protocol, respectively.
For FIGS. 12A, 12B, and 12C, *P<0.05, ** P<0.01, ***P<0.001, Mann-Whitney.

For series [2] the following is noted: cited from earlier work.
In series [3] the test system is insulin in pancreatic islets. In words: Immuno-staining for insulin in pancreatic islets after 4-MU treatment. It is filed as in vivo, mouse. The following applies: DORmO mice treated with 4-MU, 8 week start treatment group. The text has this:
The animals stained for HA were also stained for insulin. […] The pictures in the upper row show representative images of insulin staining in pancreatic islets in control animals treated with normal chow, (left column) or treated with 4-MU (right column).

The next series relates to FoxP3+ T-cells. In words: FoxP3+ T-cell numbers in lymphatic tissue after 4-MU treatment. It is filed as in vivo, mouse.
The subject of series [4] is cells infiltrating into the spinal cord. Description: Immunologic profile of cells infiltrating the spinal cord at peak of EAE. The following applies: for CD4+ T-cell infiltration into the spinal cord: EAE day 22 after immunization. It is filed as in vivo, mouse. On the procedure: The effect of 4-MU treatment on EAE pathogenesis was analyzed by evaluating the immunologic profile of cells infiltrating into the spinal cord at the peak of disease (day 22 after immunization).
Further, considering the differential pathologic roles that Th1 and Th17 cells have in EAE (Axtell, R. C., et al., Clin. Rev. Allergy Immunol. 44, 114-120 (2013); Lowther, D. E., et al., Acta Neuropathol. 126, 501-515 (2013)), this change in the local Th cell profile can contribute to the prevention of the autoimmune attack on myelin.

Another series has as its system DORmO mice. Description: Blood glucose in DORmO double transgenic mouse model of autoimmune diabetes, 4-MU in chow. It is filed as in vivo. The text has this:
To determine that HA accumulates in the pancreatic islets and creates a permissive environment for autoimmune attacks during autoimmune diabetes disease progression, the DORmO double transgenic mouse model of autoimmune diabetes was used. DORmO mice predictably develop autoimmune diabetes because they are bred to have both a target antigen on their insulin producing beta-cells as well as an immune system that specifically recognizes that antigen. DORmO mice are the result of a cross between RIPmOVA mice (a strain that carries a gene specific for hen egg ovalbumin (OVA) that is only expressed on beta-cells, emulating the auto-antigen) and DO11.10 mice (a strain that carries a T-cell receptor transgene specific for OVA, emulating auto-reactive CD4+ T cells). […] A group of control mice was treated with 4-MU as well in order to see if 4-MU alters the blood glucose levels of those mice. […] The DORmO mice on control chow had to be sacrificed after getting diabetic according to the animal protocol. Another treatment group was established where the 4-MU treatment started at 12 weeks of age when the DORmO mice were already diabetic. […] The animals stained for HA were also stained for insulin. […] The pictures in the upper row show representative images of insulin staining in pancreatic islets in control animals treated with normal chow, (left column) or treated with 4-MU (right column).

The test system of series [5] is HA accumulation in the pancreatic islets. Description: Immuno-staining for HA in pancreatic islets after 4-MU treatment. It is filed as in vivo, mouse. The following applies: DORmO mice, 8 week start treatment group, versus DORmO mice on control chow. The text has this: HA accumulation in the pancreatic islets was investigated through immuno-staining after 4-MU treatment in a few mice of the 8 week start treatment group. […] The pictures in the upper row show representative images of a HA staining in pancreatic islets in control animals treated with normal chow, left column, or treated with 4-MU, right column.

For the next series, the system named is CD4+ CD25+ cells. In words: CD25+ of CD4+ T-cells in spleen and lymph nodes of EAE mice. Particulars: EAE subjects, 4-MU started before immunization (pretreatment protocol). It is filed as in vivo, mouse.
The mark [6] stands for this setting: EAE mice after 4-MU treatment, FIG. 13B.
Setting [7] is: EAE mice, 4-MU treatment, FIG. 13A.

As for `Cc1cc(=O)oc2cc(O)ccc12` [4-MU, 4-methylumbelliferone], the “EAE disease severity (mean EAE score)” value in series [1] (intervention protocol, 4-MU after the onset of neurological symptoms) is listed as “significantly ameliorated disease as early as 3 days after start of treatment”. The “incidence of EAE” value in series [1] (pretreatment protocol, 4-MU 5% w/w in chow from 4 days before immunization) is recorded as 1/7; in series [1] (treatment protocol, 4-MU 5% w/w in chow after immunization boost on day 2, before symptoms), 2/10. For the same compound, the toxicity result in series [2] (general statement) was “no known toxicity”. Moreover, in series [2] (human use in Europe and Asia (biliary spasm, gallstones)), the “safety profile in clinical use” value was “excellent safety profile”. Moreover, the “insulin in the islets (immuno-staining)” value in series [3] is listed as “still had a significant amount of insulin in the islets”. For the same compound, the “FoxP3+ T-cells in spleen, MLN, ILN and PLN” value in the series with FoxP3+ T-cells (D0.11 mice following OVA immunization, FIG. 13D) is reported as “increase in FoxP3+ T-cells”. Further, the general immunosuppression entry in the series with FoxP3+ T-cells (D0.11 mice on 4-MU, data not shown) is reported as “did not induce a general immunosuppression”. In addition, the “numbers of FoxP3+ T-cells in lymphatic tissue” value with FoxP3+ T-cells (healthy mice, data not shown) is “significantly increased”. Moreover, the “CD4+ T-cell infiltration into the spinal cord” value is “moderately reduced” in series [4] (intervention treatment); “substantially reduced” in series [4] (pretreatment and early treatment with 4-MU). The “IFN-γ producing Th1 populations among CD4+ T-cells in the CNS” value in series [4] (setting [6]) is “mainly reduced”. Also, in series [4] (setting [6]), the “IL-17 producing Th17 population among CD4+ T-cells in the CNS” value was “less affected”. For the same compound, the “total lymphocyte counts in lymphatic organs (generalized immunosuppression)” value in series [4] (EAE mice on 4-MU) was “unchanged”. Also, the “infiltration of CD8+ and CD4+ lymphocytes and macrophages” value in series [4] (setting [7]) is “reduced infiltration”. Moreover, in series [4] (setting [7]), the “total numbers of cell infiltrates in spinal cord” value is reported as “lower total numbers of cell infiltrates”. In addition, the normo-glycemia result with DORmO mice (DORmO mice, 4-MU added to chow) is given as “restored normo-glycemia”. The “blood glucose level / development of diabetes” value in the series with DORmO mice (DORmO mice, 4-MU in chow starting at 5 weeks of age) is recorded as “not to become diabetic”. Besides, in the series with DORmO mice (DORmO mice, 4-MU treatment starting at 8 weeks of age, at 23 weeks of age), the blood glucose level entry is given as “normal blood glucose level”. Further, the blood glucose levels entry with DORmO mice (already diabetic DORmO mice, 4-MU starting at 12 weeks of age, after 1 week of treatment) was “decrease of the blood glucose levels”. The “HA accumulation in pancreatic islets (immuno-staining)” value in series [5] was “significant decrease”. The “number of CD4+ CD25+ cells in the spleen and lymph nodes” value in the series with CD4+ CD25+ cells was “increased number”.
